This note sets out measurements from patent US10201586B2 (dated 2019).

“Also recorded” adds a separate entry of the source. Where a SMILES comes first, the peptide text is derived from it. Bridges are numbered along the chain shown (N, C = ends). [ ]: non-standard residue; d: D form. ξ: configuration not given here. β3hK = NCCCC[C@H](N)CC(=O)O; Nle = CCCC[C@H](N)C(=O)O; ξβ3hV = CC(C)C(N)CC(=O)O A value given as a limit tells only on which side of the number the result lay.

A short description of data set [1]: plasma stability in mouse plasma. It counts as in vitro ADME. The following applies: read-out: percentage of initial amount of peptide remaining in plasma.
In data set [2] the test system is human whole blood clot formation. Description: rotation thromboelastography (ROTEM). The following applies: Hem A (FVIII-inhibited) human whole blood.
Protocol: Continuous visco-elastic assessment of human whole blood clot formation and firmness was performed by rotation thromboelastography with whole blood preparations in the presence or absence of peptides.
Recordings were made using a ROTEM thromboelastography coagulation analyzer (Pentapharm, Munich, Germany) at 37° C. Briefly, blood is added into a disposable cuvette in a heated cuvette holder. A disposable pin (sensor) is fixed on the tip of a rotating axis. The axis is guided by a high precision ball bearing system and rotates back and forth. The axis is connected with a spring for the measurement of elasticity. The exact position of the axis is detected by the reflection of light on a small mirror on the axis. The loss of elasticity when the sample clots leads to a change in the rotation of the axis. The data obtained are computer analyzed and visualized in a thromboelastogram. […] An elasticity of approximately zero is observed before clot formation begins. Mirror image traces above and below the zero line indicate the effect of clot formation on the rotation of the axis.
The analytical set-up was as follows: to 20 μL of test sample or control, 300 μL of pre-warmed (37° C.) CTI treated citrated whole blood was added, followed by 20 μL of a 1:15 dilution of TF PRP reagent containing recombinant human tissue factor (rTF, 3 pM) (TS40, Thrombinoscope BV, Maastricht, The Netherlands).
The thromboelastographic parameters of clotting time (CT), clot formation time (CFT) and maximum clot firmness (MCF) were recorded in accordance with the manufacturer's instructions. CT is defined as the time from the start of measurement to the start of clot formation. CFT is defined as the time from the start of clot formation until an amplitude of 20 mm is reached. MCF is the maximum difference in amplitude between the two traces during the assay. The first derivative of the data of the thromboelastogram are plotted to obtain a graph of velocity (mm/s) against time (s). From this graph, the maximum velocity (maxV) is determined. The time at which the maximum velocity is obtained (maxV-t) is also determined.
The target in data set [3] is T1, TFPI (Homo sapiens, UniProt P10646). Briefly: IC50 [nm].
Target sequence in this assay (P10646 29-304 limits assumed): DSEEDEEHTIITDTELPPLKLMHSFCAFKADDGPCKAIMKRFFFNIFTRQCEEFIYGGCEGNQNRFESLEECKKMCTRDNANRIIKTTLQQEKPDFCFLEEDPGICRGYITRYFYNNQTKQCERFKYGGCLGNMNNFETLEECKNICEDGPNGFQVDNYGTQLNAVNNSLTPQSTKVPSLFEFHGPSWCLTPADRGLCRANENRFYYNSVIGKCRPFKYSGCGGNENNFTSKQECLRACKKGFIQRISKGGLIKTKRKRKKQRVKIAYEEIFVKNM
In data set [4] the target is T1, TFPI. Description: IC50 Mean (nM].
Target sequence in this assay (P10646 29-304 limits assumed): as above
For data set [5], the target named is T1, TFPI. Briefly: % Inhibition @ 2.5µM.
The target of data set [6] is T1, TFPI. Description: Extrinsic Tenase Inhibition assay | % Inhibition @ 2.5µM.
Data set [7] deals with FIX knock-out mice. Briefly: tail-tip bleed model. The data set is classed as in vivo, mouse. On the procedure: The amount of blood was determined gravimetrically.
JBT2329 also was tested in a FIX knock-out tail-tip bleed mouse model, which is a clinically-relevant model for hemophilia B human patients. The methodology was substantially similar to that described above with respect to the FVIII knock-out model. Instead of ADVATE, a recombinant FIX (rFIX) served as a reference. Median total blood loss in buffer-treated animals was 935 mg. Median total blood loss in animals treated with a murine anti-TFPI antibody (maTFPI) was 774 mg. Median total blood loss was reduced further when the animals received combined treatment of maTFPI and rFIX.

Take `CC(=O)N[C@@H](Cc1ccccc1)C(=O)N[C@@H](CCC(N)=O)C(=O)N[C@@H](CO)C(=O)N[C@@H](CCCCN)C(=O)N1CCC[C@@H]1C(=O)N[C@@H](CC(N)=O)C(=O)N[C@H](C(=O)N[C@@H](Cc1c[nH]cn1)C(=O)N[C@H](C(=O)N[C@@H](CC(=O)O)C(=O)NCC(=O)N[C@@H](Cc1ccc(O)cc1)C(=O)N[C@@H](Cc1ccccc1)C(=O)N[C@@H](CCC(=O)O)C(=O)N[C@@H](CCCNC(=N)N)C(=O)N[C@@H](CC(C)C)C(=O)NC(C)(C)C(=O)N[C@@H](C)C(=O)N[C@@H](CCCCN)C(=O)N[C@@H](CC(C)C)C(N)=O)C(C)C)C(C)C` [JBT1857]: the amount remaining at 24 h in data set [1] is below 10%. In addition, the coagulation parameters entry in data set [2] is reported as “restored coagulation parameters in Hem A blood; also recorded: positively impacted blood coagulation parameters, but performed less efficiently than JBT1837”. `CSCC[C@H](NC(=O)CNC(=O)[C@H](CO)NC(=O)[C@H](Cc1ccccc1)NC(=O)[C@H](Cc1c[nH]c2ccccc12)NC(=O)[C@H](CCCCN)NC(=O)[C@H](Cc1ccc(O)cc1)NC(=O)[C@H](CCCNC(=N)N)NC(=O)[C@H](CO)NC(C)=O)C(=O)N[C@@H](CCCNC(=N)N)C(=O)N[C@@H](CC(=O)O)C(=O)N[C@@H](CCSC)C(=O)N[C@@H](CCCCN)C(=O)NCC(=O)N[C@H](C(=O)N[C@@H](CCSC)C(=O)N[C@@H](CO)C(=O)N[C@@H](CO)C(=O)N[C@H](C(=O)N[C@@H](Cc1c[nH]c2ccccc12)C(=O)N[C@H](C(=O)N[C@@H](CCCCN)C(=O)N[C@@H](Cc1ccccc1)C(N)=O)C(C)C)C(C)C)[C@@H](C)O` [JBT0417 | 1229] (Ac-SRYKWFSGMRDMKGTMSSVWVKF-NH2): the half-maximal inhibitory concentration (IC50) in data set [3] is above 50 µM. `CC(=O)N[C@@H](Cc1ccccc1)C(=O)N[C@@H](CCC(N)=O)C(=O)N[C@@H](CO)C(=O)N[C@@H](CCCCN)C(=O)NCC(=O)N[C@@H](CC(N)=O)C(=O)N[C@H](C(=O)N[C@@H](Cc1ccccc1)C(=O)N[C@H](C(=O)N[C@@H](Cc1ccccc1)C(=O)NCC(=O)N[C@@H](Cc1ccc(O)cc1)C(=O)N[C@@H](Cc1ccccc1)C(=O)N[C@@H](CCC(=O)O)C(=O)N[C@@H](CCCNC(=N)N)C(=O)N[C@@H](CC(C)C)C(=O)N[C@@H](CCCNC(=N)N)C(=O)N[C@@H](C)C(=O)N[C@@H](CCCCN)CC(=O)N[C@@H](CC(C)C)C(N)=O)C(C)C)C(C)C` [JBT0533 | 424] (Ac-FQSKGNVFVFGYFERLRA[β3hK]L-NH2) gave a 50% inhibitory concentration (IC50) in data set [4] of 756 nM. In the case of “Ac-SGAASFPLAVQLHVSKRSKEMALARLYYKTS-NH2 (SEQ ID NO: 2131) [JBT0662]”, the “% Inhibition @ […]” value in data set [5] is reported as 4%. Besides, the “Extrinsic Tenase Inhibition assay | % Inhibition @ […]” value in data set [6] came out at 0%. For the compound `CSCC[C@@H]1NC(=O)CNC(=O)[C@@H](NC(=O)[C@H](Cc2ccccc2)NC(=O)[C@H](Cc2c[nH]c3ccccc23)NC(=O)[C@H](CCCCN)NC(=O)[C@H](Cc2ccc(O)cc2)NC(=O)[C@H](CCCNC(=N)N)NC(=O)[C@H](CO)NC(C)=O)CSSC[C@@H](C(=O)N[C@H](C(=O)N[C@@H](Cc2c[nH]c3ccccc23)C(=O)N[C@H](C(=O)N[C@@H](CCCCN)C(=O)N[C@@H](Cc2ccccc2)C(N)=O)C(C)C)C(C)C)NC(=O)[C@H](CO)NC(=O)[C@H](CCSC)NC(=O)[C@H]([C@@H](C)O)NC(=O)CNC(=O)[C@H](CCCCN)NC(=O)[C@H](CCSC)NC(=O)[C@H](CC(=O)O)NC(=O)[C@H](C)NC1=O` [JBT0446 | 1079] (Ac-SRYKWFCGMADMKGTMSCVWVKF-NH2; disulfide 7-18), in data set [3], the IC50 stood at 0.152 µM.

For `CCN1C(=O)CC(SC[C@H](NC(=O)[C@H](CC(C)C)NC(=O)[C@H](CCCCN)NC(=O)[C@H](C)NC(=O)C(C)(C)NC(=O)[C@H](CC(C)C)NC(=O)[C@H](CCCNC(=N)N)NC(=O)[C@H](CCC(=O)O)NC(=O)[C@H](Cc2ccccc2)NC(=O)[C@H](Cc2ccc(O)cc2)NC(=O)CNC(=O)[C@H](CC(=O)O)NC(=O)[C@@H](NC(=O)[C@H](Cc2c[nH]cn2)NC(=O)[C@@H](NC(=O)[C@H](CC(N)=O)NC(=O)[C@H]2CCCN2C(=O)[C@H](CCCCN)NC(=O)[C@H](CO)NC(=O)[C@H](CCC(N)=O)NC(=O)[C@H](Cc2ccccc2)NC(C)=O)C(C)C)C(C)C)C(N)=O)C1=O` (some centres unmarked) [JBT2317], in data set [1], the share remaining at 24 h is below 10%. For the same compound, the coagulation parameters entry in data set [2] is “restored coagulation parameters in Hem A blood”.

As for `CSCC[C@@H]1NC(=O)[C@H](C)NC(=O)[C@@H](NC(=O)[C@H](Cc2c[nH]cn2)NC(=O)[C@H](Cc2c[nH]c3ccccc23)NC(=O)[C@H](CCCCN)NC(=O)[C@H](Cc2ccc(O)cc2)NC(=O)[C@H](Cc2ccc(O)cc2)NC(=O)[C@H](CO)NC(C)=O)CSSC[C@@H](C(=O)N[C@H](C(=O)N[C@@H](Cc2c[nH]c3ccccc23)C(=O)N[C@H](C(=O)N[C@@H](CCCCN)C(=O)N[C@@H](Cc2ccccc2)C(N)=O)C(C)C)C(C)C)NC(=O)[C@H]([C@@H](C)O)NC(=O)[C@H](CCSC)NC(=O)[C@H]([C@@H](C)O)NC(=O)CNC(=O)[C@H](CCCCN)NC(=O)[C@H](CCSC)NC(=O)[C@H](CC(=O)O)NC(=O)[C@H](CCCNC(=N)N)NC1=O` [JBT1837], in data set [2], the coagulation parameters entry is “corrected blood coagulation parameters in FVIII-inhibited blood”.

In turn, `CCCC[C@H](NC(=O)CNC(=O)[C@H](CO)NC(=O)[C@H](Cc1ccccc1)NC(=O)[C@H](Cc1c[nH]c2ccccc12)NC(=O)[C@H](CCCCN)NC(C)=O)C(=O)N[C@@H](CCCNC(=N)N)C(=O)N[C@@H](CC(=O)O)C(=O)N[C@@H](CCCC)C(=O)N[C@@H](CCCCN)C(=O)NCC(=O)N[C@H](C(=O)N[C@@H](CCCC)C(=O)N[C@@H](CO)C(=O)N[C@@H](CO)C(=O)N[C@H](C(=O)N[C@@H](Cc1c[nH]c2ccccc12)C(=O)N[C@H](C(=O)N[C@@H](CCCCN)C(=O)N[C@@H](Cc1ccccc1)C(N)=O)C(C)C)C(C)C)[C@@H](C)O` [JBT0414 | 1205, Ac-KWFSG-Nle-RD-Nle-KGT-Nle-SSVWVKF-NH2] (Ac-KWFSG[Nle]RD[Nle]KGT[Nle]SSVWVKF-NH2) returned a 50% inhibitory concentration (IC50) in data set [3] of 5.69 µM. On to “Ac-SGYASFPLAVALHVSKRSKEMALARLYYKTS-NH2 (SEQ ID NO: 2007) [JBT0670]”, for which, in data set [5], the “% Inhibition @ […]” value came out at 6%. Besides, in data set [6], the “Extrinsic Tenase Inhibition assay | % Inhibition @ […]” value is 2%.

For “rFIX: a recombinant FIX (rFIX) served as a reference”, the Median blood loss in data set [7] (10 IU/kg rFIX alone) is on record as 888 mg; in data set [7] (25 IU/kg rFIX alone), 774 mg. `CC(=O)N[C@@H](Cc1ccccc1)C(=O)N[C@@H](CCC(N)=O)C(=O)N[C@@H](CO)C(=O)N[C@@H](CCCCN)C(=O)NCC(=O)N[C@@H](CC(N)=O)C(=O)NC(CC(=O)N[C@@H](Cc1ccccc1)C(=O)N[C@H](C(=O)N[C@@H](Cc1ccccc1)C(=O)NCC(=O)N[C@@H](Cc1ccc(O)cc1)C(=O)N[C@@H](Cc1ccccc1)C(=O)N[C@@H](CCC(=O)O)C(=O)N[C@@H](CCCNC(=N)N)C(=O)N[C@@H](CC(C)C)C(=O)N[C@@H](CCCNC(=N)N)C(=O)N[C@@H](C)C(=O)N[C@@H](CCCCN)C(=O)N[C@@H](CC(C)C)C(N)=O)C(C)C)C(C)C` (stereo partly drawn) [JBT0521 | 756] (Ac-FQSKGN[ξβ3hV]FVFGYFERLRAKL-NH2) had a concentration for half-maximal inhibition (IC50) in data set [4] above 5000 nM. On to “Ac-SGYASFPLAVQAHVSKRSKEMALARLYYKTS-NH2 (SEQ ID NO: 2019) [JBT0671]”, for which the “% Inhibition @ […]” value in data set [5] is given as 4%. For the same compound, in data set [6], the “Extrinsic Tenase Inhibition assay | % Inhibition @ […]” value stood at 7%.

`CC(=O)N[C@@H](Cc1ccccc1)C(=O)N[C@@H](CCC(N)=O)C(=O)N[C@@H](CO)C(=O)N[C@@H](CCCCN)C(=O)NCC(=O)N[C@@H](CC(N)=O)C(=O)N[C@H](C(=O)N[C@@H](Cc1ccccc1)C(=O)NC(CC(=O)N[C@@H](Cc1ccccc1)C(=O)NCC(=O)N[C@@H](Cc1ccc(O)cc1)C(=O)N[C@@H](Cc1ccccc1)C(=O)N[C@@H](CCC(=O)O)C(=O)N[C@@H](CCCNC(=N)N)C(=O)N[C@@H](CC(C)C)C(=O)N[C@@H](CCCNC(=N)N)C(=O)N[C@@H](C)C(=O)N[C@@H](CCCCN)C(=O)N[C@@H](CC(C)C)C(N)=O)C(C)C)C(C)C` (stereo partly drawn) [JBT0523 | 757] (Ac-FQSKGNVF[ξβ3hV]FGYFERLRAKL-NH2) returned an IC50 in data set [4] above 5000 nM.

Regarding `CCCC[C@H](NC(=O)CNC(=O)[C@H](CO)NC(=O)[C@H](Cc1ccccc1)NC(=O)[C@H](Cc1c[nH]c2ccccc12)NC(=O)[C@H](CCCCN)NC(=O)[C@H](Cc1ccc(O)cc1)NC(=O)[C@H](CCCNC(=N)N)NC(=O)[C@H](CO)NC(C)=O)C(=O)N[C@@H](CCCNC(=N)N)C(=O)N[C@@H](CC(=O)O)C(=O)N[C@@H](CCCC)C(=O)N[C@@H](CCCCN)C(=O)NCC(=O)N[C@H](C(=O)N[C@@H](CCCC)C(=O)N[C@@H](CO)C(=O)N[C@@H](CO)C(=O)N[C@H](C(=O)N[C@@H](Cc1c[nH]c2ccccc12)C(=O)N[C@H](C(=O)N[C@@H](CCCCN)C(=O)N[C@@H](Cc1ccccc1)C(N)=O)C(C)C)C(C)C)[C@@H](C)O` [JBT0418 | 1210, Ac-SRYKWF SG-Nle-RD-Nle-KGT-Nle-SS VWVKF-NH2] (Ac-SRYKWFSG[Nle]RD[Nle]KGT[Nle]SSVWVKF-NH2), in data set [3], the half-maximal inhibitory concentration (IC50) was found to be 43.9 µM.
